The source made the active and inactive calls. The calls are words filed in the database; no cut-off is given here.
Tests used:
Candida albicans = assay: Antimicrobial activity against Candida albicans ATCC MYA-574 at 0.14 mg/mL in broth medium incubated for 14 to 16 hrs by Synergy4 plate reader analysis; assay type: functional, organism-based; details: time 14-16 hrs
U-87 MG [1] = assay: Induction of oxidative stress in human U-87 MG cells assessed as reduction in GLuc expression at 3 to 6 uM incubated for 18 hrs in the presence of NAC; assay type: functional, cell-based; details: U-87MG ATCC, dose 3-6 µM
Cryptococcus neoformans = assay: Antimicrobial activity against Cryptococcus neoformans var. grubii ATCC 90112 at 0.14 mg/mL in broth medium incubated for 14 to 16 hrs by Synergy4 plate reader analysis; assay type: functional, organism-based; details: time 14-16 hrs
HCT-116 = assay: Cytotoxicity against human HCT-116 cells incubated for 72 hrs by CellTiter-Glo assay; assay type: functional
U-87 MG [2] = assay: Induction of oxidative stress in human U-87 MG cells assessed as reduction in GLuc expression at 3 to 6 uM incubated for 18 hrs; assay type: functional, cell-based; details: U-87MG ATCC, dose 3-6 µM
Klebsiella pneumoniae = assay: Antimicrobial activity against Klebsiella pneumoniae ATCC BAA-2344 at 0.14 mg/mL in broth medium incubated for 14 to 16 hrs by Synergy4 plate reader analysis; assay type: functional, organism-based; details: time 14-16 hrs
Enterococcus faecium = assay: Antimicrobial activity against Enterococcus faecium ATCC BAA-2317 at 0.14 mg/mL in broth medium incubated for 14 to 16 hrs by Synergy4 plate reader analysis; assay type: functional, organism-based; details: time 14-16 hrs
Escherichia coli = assay: Antimicrobial activity against Escherichia coli ATCC BAA-2523 at 0.14 mg/mL in broth medium incubated for 14 to 16 hrs by Synergy4 plate reader analysis; assay type: functional, organism-based; details: time 14-16 hrs
Acinetobacter baumannii = assay: Antimicrobial activity against Acinetobacter baumannii ATCC BAA-1605 at 0.14 mg/mL in broth medium incubated for 14 to 16 hrs by Synergy4 plate reader analysis; assay type: functional, organism-based; details: time 14-16 hrs
Staphylococcus aureus = assay: Antimicrobial activity against Staphylococcus aureus subsp. aureus ATCC 700698 at 0.14 mg/mL in broth medium incubated for 14 to 16 hrs by Synergy4 plate reader analysis; assay type: functional, organism-based; details: time 14-16 hrs
SH-SY5Y = assay: Cytotoxicity against human SH-SY5Y cells assessed as reduction in cell viability at 10 uM incubated for 72 hrs by CellTiter-Glo assay; assay type: functional
U-87 MG [3] = assay: Induction of oxidative stress in human U-87 MG cells cultured with GLuc assessed as change in cell viability at 3 to 6 uM incubated for 18 hrs by CellTiter-Glo luminescent assay; assay type: functional, cell-based; details: U-87MG ATCC, dose 3-6 µM
Pseudomonas aeruginosa = assay: Antimicrobial activity against Pseudomonas aeruginosa ATCC […] at 0.14 mg/mL in broth medium incubated for 14 to 16 hrs by Synergy4 plate reader analysis; assay type: functional, organism-based; details: time 14-16 hrs

| Compound | Activity (Candida albicans) | Activity (U-87 MG [1]) | Activity (Cryptococcus neoformans) | CC50 (HCT-116) [µM] | Activity (U-87 MG [2]) | Activity (Klebsiella pneumoniae) | Activity (Enterococcus faecium) | Activity (Escherichia coli) | Activity (Acinetobacter baumannii) | Activity (Staphylococcus aureus) | Activity (SH-SY5Y) | Activity (U-87 MG [3]) | Activity (Pseudomonas aeruginosa) |
| --- | --- | --- | --- | --- | --- | --- | --- | --- | --- | --- | --- | --- | --- |
| CCCCCCCCCC[C@H]1OC(=O)[C@H](CC(C)C)N(C)C(=O)[C@H](C(C)C)NC(=O)[C@@H](Cc2ccccc2)NC(=O)[C@H]([C@@H](C)CC)OC(=O)[C@H]([C@@H](C)OC)NC(=O)[C@H](C)NC(=O)[C@H](CC(C)C)NC1=O | inactive | inactive | inactive | 3.29 | inactive | inactive | inactive | inactive | inactive | inactive | inactive | inactive | inactive |
| COc1ccc(C[C@H](NC(=O)/C(C)=C/[C@H]2CSC([C@@H](C)[C@@H](O)C[C@H](C)C[C@H](O)C(C)(C)C)=N2)C(=O)N(C)[C@@H](C)C(=O)N(C)[C@@H]2C(=O)N3CCC[C@H]3C(=O)OC(C)[C@@H]2C)cc1 (some centres undefined) |  | Active |  |  |  |  |  |  |  |  |  |  |  |
| CCCCCCCC[C@H]1OC(=O)[C@H](CC(C)C)N(C)C(=O)[C@H](C(C)C)NC(=O)[C@@H](Cc2ccccc2)NC(=O)[C@H]([C@@H](C)CC)OC(=O)[C@H]([C@@H](C)OC)NC(=O)[C@H](C)NC(=O)[C@H](CC(C)C)NC1=O (stereo in doubt; 2a) [listing 1 of 2 here] |  |  |  | 1.75 |  |  |  |  |  |  | ~50% |  |  |
| CCCCCCCC[C@H]1OC(=O)[C@H](CC(C)C)N(C)C(=O)[C@H](C(C)C)NC(=O)[C@@H](Cc2ccccc2)NC(=O)[C@H]([C@@H](C)CC)OC(=O)[C@H]([C@@H](C)OC)NC(=O)[C@H](C)NC(=O)[C@H](CC(C)C)NC1=O (stereo in doubt; 2) | inactive | inactive | inactive |  | Active | inactive | inactive | inactive | inactive | inactive |  | inactive | inactive |
| C=C(C)[C@H]1Cc2c(ccc3c2O[C@@H]2COc4cc(OC)c(OC)cc4[C@@H]2C3=O)O1 |  | inactive |  |  |  |  |  |  |  |  |  |  |  |
| CCCCCCCC[C@H]1OC(=O)[C@H](CC(C)C)N(C)C(=O)[C@H](C(C)C)NC(=O)[C@@H](Cc2ccccc2)NC(=O)[C@H]([C@@H](C)CC)OC(=O)[C@H]([C@@H](C)OC)NC(=O)[C@H](C)NC(=O)[C@H](CC(C)C)NC1=O (stereo in doubt; 2a) [listing 2 of 2 here] |  | inactive |  |  |  |  |  |  |  |  |  |  |  |

Source: ChEMBL document CHEMBL6103655, “Structure and Synthesis of Amatyemides A and B, Cyclic Octadepsipeptides from South African Stromatolites” (2025)
